Experiments:
Trypanosoma cruzi [1] = assay: microbe, parasite or virus in culture; assay type: functional, organism-based, Tulahuen LacZ, Clone C4
[2] = DNDI: Cytotoxicity against L-6 rat myoblasts from skeletal muscle cells
Trypanosoma cruzi [3] = assay: microbe, parasite or virus in culture; assay type: functional, Tulahuen LacZ, Clone C4
[4] = Trypanosoma cruzi, Tulahuen LacZ, Clone C4
[5] = L6 rat skeletal muscle myoblast cells, IC50
[6] = L6 rat skeletal muscle myoblast cells

SMILES	IC50 (Trypanosoma cruzi [1]; [4])	IC90 (Trypanosoma cruzi [3]; [4])	IC50 (Trypanosoma cruzi [1])	IC90 (Trypanosoma cruzi [3])	IC50 [2, 5]	IC50 [2, 6]	IC50 ([2]; l6, IC50)
CC(C)Oc1ccc(C(O)(c2cccnc2)c2cnc(Cl)nc2)cc1 (centres undefined)	0.293 µM	0.67 µM			> 100 µM		
CC(C)CS(=O)(=O)NC1CCN(C(c2ccc(C(F)(F)F)cc2)c2cnccn2)CC1 (centres undefined)	0.55 µM	0.88 µM			62.3 µM		
OC(c1ccc(C(F)(F)F)cc1)(c1cccnc1)c1ccc(Cl)cc1F (centres undefined)	0.00177 µM	0.005 µM				> 100 µM	
OC(c1cccnc1)(c1cncc(F)c1)c1ccc(Cl)cc1F (centres undefined)	0.228 µM	0.868 µM			> 100 µM		
Cc1ccc(C(O)(c2cccnc2)c2ccccc2Cl)cc1 (centres undefined)	0.07 µM	0.16 µM				> 100 µM	
CCn1nc(C)cc1C(=O)N1CCC(NC(c2ccc(C(F)(F)F)cc2)c2cccnc2)CC1 (centres undefined)	0.0705 µM	0.207 µM			> 100 µM		
CS(=O)(=O)N1CCN(C(c2cncnc2)c2ccc(Cl)cc2F)CC1 (centres undefined)	0.444 µM	0.724 µM	0.39 µM	0.85 µM	> 100 µM		
O=S(=O)(Cc1ccccc1)NC1CCN(C(c2cnccn2)c2ccc(F)cc2F)CC1 (centres undefined)	0.72 µM	> 1 µM			> 100 µM		
CCn1cc(C(NC2CCN(c3ccc(OC(F)(F)F)cc3)CC2)c2cccnc2)cn1 (centres undefined)	0.103 µM	0.298 µM			73.9 µM		
O=C(NC1CC1)N1CCN(C(c2ccc(C(F)(F)F)cc2)c2cncnc2)CC1 (centres undefined)	> 1 µM	> 1 µM			> 100 µM		
O=S(=O)(NC1CCN(C(c2cnccn2)c2ccc(F)cc2F)CC1)c1ccc(Cl)cc1 (centres undefined)	> 1 µM	> 1 µM			34.3 µM		
Cc1nc(C(=O)N2CCC(NC(c3ccc(C(F)(F)F)cc3)c3cccnc3)CC2)cs1 (centres undefined)	0.327 µM	0.807 µM			> 100 µM		
O=C(NC1CCN(C(c2ccc(C(F)(F)F)cc2)c2cnccn2)CC1)c1ccc(C(F)(F)F)cc1 (centres undefined)	0.1 µM	0.3 µM			57.4 µM		
Cc1ccc(-c2c(Cl)nc(C#N)n2S(=O)(=O)N(C)C)cc1 [Cyazofamid]	47.2 µM	> 100 µM				74 µM	
O=C(OCc1ccccc1)N1CCN(C(c2ccc(Cl)cc2)c2cncnc2)CC1 (centres undefined)	0.15 µM	0.3 µM			52.1 µM		
CC1CS(=O)(=O)CCN1/N=C/c1ccc([N+](=O)[O-])o1 (centres undefined) [NIFURTIMOX]	0.23 µM	0.82 µM					> 100 µM
Cc1cnc(C(O)(c2ccc(Cl)cc2)c2ccc(C(F)(F)F)cc2)cn1 (centres undefined)	> 1 µM	> 1 µM			61.6 µM		
CC(O)C(C)N1CCC(NC(c2ccc(Cl)cc2)c2cccnc2)CC1 (centres undefined)	1.81 µM	3.16 µM			> 100 µM		
O=C(c1ccc(F)cc1)c1ccc(Cl)cc1	> 10 µM	10 µM			> 100 µM		
O=C(NC1CCN(C(c2ccc(Cl)cc2)c2cncnc2)CC1)C1CC1 (centres undefined)	0.48 µM	> 1 µM			> 100 µM		

More lines, in order of falling IC50 (Trypanosoma cruzi [1]; [4]), values ahead:

IC50 (Trypanosoma cruzi [1]; [4])	IC90 (Trypanosoma cruzi [3]; [4])	IC50 (Trypanosoma cruzi [1])	IC90 (Trypanosoma cruzi [3])	SMILES	IC50 [2, 5]	IC50 [2, 6]	IC50 ([2]; l6, IC50)
0.068 µM	0.128 µM			CC(C)(C)NC(=O)N1CCC(NC(c2ccc(C(F)(F)F)cc2)c2cncs2)CC1 (centres undefined)	> 100 µM		
0.062 µM	0.15 µM			N#Cc1ccccc1C(O)(c1ccc(Cl)cc1)c1cccnc1 (centres undefined)	> 100 µM		
0.062 µM	> 0.09 µM			Fc1ccccc1OC1CCN(C(c2ccc(C(F)(F)F)cc2)c2cccnc2)CC1 (centres undefined)	67.8 µM		
0.058 µM	0.248 µM			O=C(c1ccccc1)N1CCC(NC(c2cccnc2)c2ccc(Cl)cc2F)CC1 (centres undefined)	70.9 µM		
0.058 µM	0.12 µM			CCOC(=O)N1CCN(C(c2ccc(Cl)cc2)c2cccnc2)CC1 (centres undefined)	83.2 µM		
0.055 µM	0.101 µM			Cc1nocc1C(=O)NC1CCN(C(c2ccc(C#N)cc2)c2cccnc2)CC1 (centres undefined)	> 100 µM		
0.0423 µM	0.076 µM			CC(=O)C(C)N1CCC(NC(c2ccc(Cl)cc2)c2cccnc2)CC1 (centres undefined)	87.7 µM		
0.039 µM	0.092 µM			Fc1cc(Cl)ccc1C(NC1CCN(Cc2ccc(Cl)cc2Cl)CC1)c1cccnc1 (centres undefined)	43 µM		
0.035 µM	0.076 µM			Clc1ccc(C(NC2CCN(c3ccc(Cl)cn3)CC2)c2cccnc2)cc1 (centres undefined)	66.8 µM		
0.029 µM	0.101 µM			Cc1cnc(N2CCC(NC(c3ccc(C(F)(F)F)cc3)c3cccnc3)CC2)s1 (centres undefined)	59.9 µM		
0.018 µM	0.0545 µM			Fc1cccc(F)c1N1CCC(NC(c2ccc(C(F)(F)F)cc2)c2cccnc2)CC1 (centres undefined)	54.2 µM		
0.014 µM	0.036 µM			O=C(Nc1ccccc1)NC1CCN(C(c2ccc(C(F)(F)F)cc2)c2cccnc2)CC1 (centres undefined)	31.7 µM		
0.01 µM	0.43 µM			O=C(NC1CCN(C(c2ccc(Cl)cc2)c2cccnc2)CC1)c1ccccc1 (centres undefined)	64.1 µM		
0.0088 µM	0.065 µM			CC(C)(C)CC(=O)NC1CCN(C(c2ccc(Cl)cc2)c2cccnc2)CC1 (centres undefined)	> 100 µM		

— ChEMBL document CHEMBL1862790, “Optimisation of fenarimol series for the treatment of Chagas disease”
